A short description of the series: in vitro. As to conditions: human, hela cells, % viability.

Turning to `CSc1cc(C)c2c(c1)COC1(CCN(C(=O)c3ccco3)CC1)O2` [CBK061106], the viability at 28.5 h, 10 µM (bulk resorufin, single well) was 92.6%.
Consider `COc1ccc(OC)c(S(=O)(=O)N2CCC(C(=O)O)CC2)c1` [CBK266835], for which the viability at 28.5 h, 10 µM turned out to be 83.5%.
Same read-out and setting: the result for `CCS(=O)(=O)N1C[C@H]2CC[C@](O)(c3ccc(C)cc3)[C@H]2C1` [CBK285296] reads 107%; that for `CN1C(=O)[C@@H](OC(=O)c2cccnc2)C[C@H]1c1ccc(F)cc1` [CBK283649], 104%.
Still for that read-out and setting: the result for `N#C/N=C(/Nc1cccnc1)Oc1ccccc1` [CBK012612] reads 87.3%.
On the same count and under the same terms, the result for `CN(C(=O)c1ccccc1)[C@]1(C)C2CC(C[C@@H]2O)C1(C)C` (some centres unmarked) [CBK010498] reads 102%.
With `Cn1c(=O)oc2ccc(C(=O)NCCN3CCCCC3CO)cc21` (centres unmarked) [CBK307594], the viability at 28.5 h, 10 µM was found to be 78%.
With `Cc1nc(N2CCOCC2)[nH]c(=O)c1CCC(=O)Nc1ccc(F)cc1` [CBK304990], the viability at 28.5 h, 10 µM is 91.1%.
For `FC(F)(F)c1cccc(Sc2ccc(Cl)c(Cl)c2)n1` [CBK089608], the viability at 28.5 h, 10 µM worked out at 91.2%.
On the same count and under the same terms, the result for `OCCN1CCN(CC(O)COCc2ccccc2)CC1` (centres unmarked) [CBK278262C] reads 90.6%; that for `c1csc(-c2ccn3c(n2)nc2ccccc23)c1` [CBK287976], 83.9%.
The same measure, in the same setting: the result for `CC(C)CN1CCC[C@H]1c1nc(-c2ccc(-n3ccnc3)nc2)no1` [CBK288894] reads 88.5%; that for `Cn1c(=O)c2c(nc(CN3CCCCC3)n2CCCc2ccccc2)n(C)c1=O` [CBK269521], 96.5%; that for `CCn1cc([C@H]2CN(C)C[C@@H]2N(C)C)c2ccccc21` [CBK285468], 108%.
On to `Cc1cc(C(=O)N2C3CCC2CC(O)(c2ccnn2C)C3)sc1C` (centres unmarked) [CBK284518], for which the viability at 28.5 h, 10 µM was determined as 103%.
Regarding `Cc1csc(C(Cc2ccsc2)NC(=O)c2ccc(=O)[nH]c2)n1` (centres unmarked) [CBK285109], the viability at 28.5 h, 10 µM was 95.2%.
Still for that read-out and setting: the result for `CN(C)c1ccc(C(=O)N2CC(=O)Nc3ccccc32)cc1` [CBK017839] reads 89.2%; that for `c1ccc(Sc2nccnc2N2CCCC2)nc1` [CBK093734], 87.7%; that for `c1ccc2oc(-c3cncc(N4CCN(CCN5CCCC5)CC4)n3)cc2c1` [CBK066052], 97.1%.
Regarding `O=C(Cc1ccccc1F)NCCn1nc(-c2ccco2)ccc1=O` [CBK283705], the viability at 28.5 h, 10 µM is 96.9%.
On the same count and under the same terms, the result for `CC(=O)C12c3ccccc3C(c3ccccc31)C1C(=O)N(c3ccc(Cl)c(C(=O)O)c3)C(=O)C12` (centres unmarked) [CBK263021] reads 93.8%; that for `Cc1ccccc1OCC(=O)NN1CCN(C)CC1` [CBK265783C], 89%.
On the same count and under the same terms, the result for `CCc1ccc(NC(=O)CNc2cc(C)ccc2OC)cc1` [CBK297553] reads 107%; that for `CCCn1cnnc1C(C)NC(=O)N(C)Cc1nc2cccc(C)c2[nH]1` (centres unmarked) [CBK307551], 112%.
Same read-out and setting: the result for `Fc1ccc(-c2cncc(Nc3ccc4c(c3)OC(F)(F)C(F)(F)O4)n2)c(F)c1` [CBK065692] reads 103%; that for `CS(=O)(=O)Nc1c[nH]nc1C1CCCN(c2cccc(F)c2C#N)C1` (centres unmarked) [CBK305444], 95.2%; that for `NNc1nc(-c2ccccc2)cc(-c2ccc(Br)cc2)n1` [CBK261795], 107%.
With `O=C(c1ccccc1O)N1CCN(Cc2cc(=O)n3ccsc3n2)CC1` [CBK306096], the viability at 28.5 h, 10 µM turned out to be 90.2%.
Same read-out and setting: the result for `COc1cc(Br)cc(C2NC(=O)c3cnc(SC)nc3N2)c1O` (centres unmarked) [CBK291179] reads 91.9%; that for `COCCOCN1C(=O)CC2(C1=O)C(=O)N(CC(=O)O)c1ccc(F)cc12` (centres unmarked) [CBK076163], 90.5%.
Take `CCC(=O)N1CCC[C@H]1Cn1nc(-c2ccc(F)cc2)ccc1=O` [CBK284253]: the viability at 28.5 h, 10 µM is 81.1%.
Same read-out and setting: the result for `O=C(O)C1CCC(CNC(=O)C2Cc3ccccc3CN2)CC1` (centres unmarked) [CBK286745] reads 84.6%; that for `COc1ccc(Cl)cc1-n1c(-c2ccc3ccccc3n2)n[nH]c1=S` [CBK288382], 95.4%.
Same read-out and setting: the result for `CN(CC(=O)Nc1ccccc1N1CCNCC1)C(=O)c1ccccc1` [CBK028287T] reads 99.3%.
Still for that read-out and setting: the result for `CNC(=O)c1ccc(-c2ccc3[nH]ccc3c2)nc1N(C)C` [CBK106146] reads 90.9%; that for `CC(C)Nc1nc(NC(C)C)nc(N(C)C(N)=O)n1` [CBK027732], 90.2%; that for `NC(=O)c1c(NC(=O)c2nc3ccccc3s2)sc2c1CCCCC2` [CBK287566], 96.5%.
Turning to `CN1C[C@@H](C(=O)NC(C)(C)C)[C@@]2(CCc3ccccc3C(=O)N2)C1` [CBK284796], the viability at 28.5 h, 10 µM is 99%.
On the same count and under the same terms, the result for `N#Cc1cccc(C(=O)N2CCN(c3ncccn3)CC2)c1` [CBK144498] reads 82.2%.
Same read-out and setting: the result for `CN(C)C(=O)c1ccc(-c2ccc(OC3CCN(C(=O)CC(C)(C)c4ccccc4)CC3)nc2)cc1` [CBK155047] reads 101%; that for `OCCCc1[nH]nc(-c2ccc(Cl)cc2)c1Br` [CBK006993], 59.2%.
Still for that read-out and setting: the result for `CC(C)Nc1cncc(OC2CCOC2)n1` (centres unmarked) [CBK115882] reads 102%; that for `Clc1ccc(-c2csc3ncnc(SCc4ccco4)c23)cc1` [CBK265972], 90.5%.
In the case of `N#CCCN(C(=O)Nc1ccc2[nH]ccc2c1)C1CCCCC1` [CBK156362], the viability at 28.5 h, 10 µM was determined as 97.9%.
On the same count and under the same terms, the result for `CCCc1ccc(OCC(=O)Nc2ccccc2C(N)=O)cc1` [CBK263103] reads 88.7%; that for `O=C(Cc1cccs1)N1CCC(O)(c2ccccn2)CC1` [CBK283587], 96.4%.
Consider `CN(C)CCN1CCN(c2nc(-c3cccc(C(N)=O)c3)cnc2N)CC1` [CBK063537], for which the viability at 28.5 h, 10 µM came out at 97.8%.
The same measure, in the same setting: the result for `Cn1cnc(S(=O)(=O)N2CCC(C(=O)NC(c3ccccn3)c3cccs3)CC2)c1` (centres unmarked) [CBK060131] reads 105%; that for `O=c1cc(O)cc(CCc2ccccc2)o1` [CBK012714], 117%; that for `O=[N+]([O-])c1cc(-c2nc(-c3cccs3)c(-c3cccs3)[nH]2)ccc1Br` [CBK265009], 102%.
Same read-out and setting: the result for `CS(=O)(=O)c1ccc2ncnc(NCC(CO)Cc3ccccn3)c2c1` (centres unmarked) [CBK306493] reads 88.7%.
`c1ccc(-c2ccc3c(c2)OC2(CCNCC2)O3)cc1` [CBK085501]: the viability at 28.5 h, 10 µM (bulk resorufin, single well) worked out at 103%.
`CS(=O)(=O)N1CCC(C(=O)NNC(=S)Nc2cccc3ccccc23)CC1` [CBK266811]: the viability at 28.5 h, 10 µM worked out at 84.2%.
Still for that read-out and setting: the result for `CCOC(=O)[C@H]1CC[C@]2(CC1)CN(C)C(=O)c1ccccc1O2` [CBK284848] reads 101%; that for `O=C(CN1C(=O)c2ccccc2C1=O)Nc1sc2c(c1C(=O)NCC1CCCO1)CCC2` (centres unmarked) [CBK265583], 109%; that for `CS(=O)(=O)Nc1nccnc1N1CCNCC1` [CBK074045T], 105%.
Same read-out and setting: the result for `Nc1c(Cc2c(Cl)cccc2Cl)c(=O)n2n1CCCC2` [CBK089337] reads 95%.
For `CCc1nc2ccc(C(=O)N3CCN(C)CC3)cn2c1N(C)Cc1nccn1C` [CBK146299], the viability at 28.5 h, 10 µM came out at 115%.
On the same count and under the same terms, the result for `OCc1cccc(-c2cc(NCc3ccccc3)n3nccc3n2)c1` [CBK037113] reads 95.6%; that for `CCc1cc(CNC(=O)c2cc(C)nc3c(C)cccc23)on1` [CBK281554], 108%; that for `CCCOc1ccc(Cc2nc(N(C)C)cc(N(C)C)n2)cc1` [CBK008318], 102%.
Still for that read-out and setting: the result for `Cc1cc(C(=O)Nc2nc(Cc3n[nH]c(=S)n3C)cs2)sc1C` [CBK296687] reads 68.5%.
For `NC(=O)Cn1cc(CN2CCC(c3ccccc3)C2)c2ccccc21` (centres unmarked) [CBK282803], the viability at 28.5 h, 10 µM was found to be 92.3%.
The same measure, in the same setting: the result for `CC(=O)C1=C(C)NC(SCC(=O)c2ccc(F)cc2)=C(C#N)C1c1sccc1C` (centres unmarked) [CBK262624] reads 95.6%.
Take `CCN(CC)C(=O)C1CCCN(C(=O)NCc2ccc3c(c2)OCO3)C1` (centres unmarked) [CBK156121]: the viability at 28.5 h, 10 µM stood at 100%.
Still for that read-out and setting: the result for `CS(=O)(=O)c1ccc(-c2ccnc3nc(N)ccc23)cc1` [CBK067648] reads 117%.
Regarding `Cc1ccc(Nc2nc(N/N=C/c3cccc4ccccc34)nc(N3CCC(Cc4ccccc4)CC3)n2)cc1` [CBK262101], the viability at 28.5 h, 10 µM came to 94.7%.
For the molecule `Nc1ncc(-c2ccncc2)nc1NC1CCCCC1` [CBK063604], the viability at 28.5 h, 10 µM is 80.9%.
For the molecule `CC1CCCN(c2ncnc3c2[nH]c2ccccc23)C1` (centres unmarked) [CBK287948], the viability at 28.5 h, 10 µM is 106%.
The same measure, in the same setting: the result for `CC1(C)CC(NC(=O)c2cc(Cn3ccc4ccccc43)[nH]n2)CCO1` (centres unmarked) [CBK307092] reads 87.7%.
The same measure, in the same setting: the result for `O=C(CSc1ccc(Cl)cc1)Nc1ccc(CN2CCOCC2)cc1` [CBK305855] reads 89%.
Still for that read-out and setting: the result for `Nc1ncc(-c2cccc(O)c2)nc1-c1ccc(CCC(=O)O)cc1` [CBK064135] reads 103%.
For `COCCn1cnnc1C(C)NC(=O)Cn1cc2ccccc2n1` (centres unmarked) [CBK307047], the viability at 28.5 h, 10 µM was found to be 92.1%.
Consider `COc1ccc(-c2c(C)nn(-c3ccc(Cl)nn3)c2C)c(C(=O)O)c1` [CBK005774], for which the viability at 28.5 h, 10 µM came out at 107%.
`Cc1cccc(CN2CCCC[C@H]3CN(C(=O)c4cccs4)C[C@H]32)c1` [CBK285530]: the viability at 28.5 h, 10 µM is 85.8%.
Still for that read-out and setting: the result for `COCCn1c(=O)n(CC=C(C)C)c2cccnc21` [CBK283534] reads 92.1%.
Still for that read-out and setting: the result for `Cc1cnc2c(C(=O)N3CC(C(=O)N4CCN(c5ccccc5)CC4)C3)cnn2c1` [CBK285641] reads 92.4%; that for `O=C(Nc1ccc2[nH]ccc2c1)c1ccc(Br)cc1Cl` [CBK159679], 106%.
On the same count and under the same terms, the result for `O=c1[nH]nc(SCc2ccccc2Cl)c(=S)[nH]1` [CBK027795] reads 117%; that for `Cc1cc(CN(C)Cc2c(C)nn(-c3ccc(F)cc3)c2C)n[nH]1` [CBK281990], 95%.

The values above are taken from PMC12040169 (PLOS Biology, 2025).
